{"source": "the supplement of paper PMC11208160", "data": [{"test": "recombinant UMI read abundance after kanamycin selection (control-corrected) (log10(CPM+1)); higher = more efficient recombination; extreme values may be limits of the assay; sequences stand for … in AGTGCAGAGAAAATCGGCCAGTTTTCTCTGCCTGCAGTCCGCATGCCGTGGGACCCCTTGGGTTCTAACCTGTTGCCTAGATTTATGCAGCGGACTGCCTTTCTCCCAAAGTGATAAACCGG…AGGTTGGTTTCACT; site = the 11-nt donor", "outline": "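After plating on IPTG (0.07 mM) plus kanamycin, or unselected, in two replicates, recombinant UMIs were PCR-amplified across the donor–target junction and sequenced. The cells were Escherichia coli co-electroporated with a UMI-tagged donor and donor-binding-loop pair library and a target plasmid with a fixed target and T7-inducible IS621 bridge recombinase. Values are log10(CPM+1), with CPM averaged over replicates and scaled by control-derived factors.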", "values": [{"sequence": "CGATCATCATGGACCGGTTTTCCCGGTAATCCGTATTTGCC (site CGATCATCTTG)", "recombinant UMI read abundance (log10)": 0}, {"sequence": "TAGCTAACATGGACCGGTTTTCCCGGTAATCCGTATTTGAA (site TAGCTATCTTT)", "recombinant UMI read abundance (log10)": 0.429}, {"sequence": "CCCTTTTCATGGACCGGTTTTCCCGGTAATCCGTATTTGGG (site CCCTTATCTCC)", "recombinant UMI read abundance (log10)": 0.00602}, {"sequence": "CATTCAACATGGACCGGTTTTCCCGGTAATCCGTATTTGAC (site CATTCAACTGT)", "recombinant UMI read abundance (log10)": 0.406}, {"sequence": "GATTGGACATGGACCGGTTTTCCCGGTAATCCGTATTTGAC (site AATTGGACTGT)", "recombinant UMI read abundance (log10)": 0.543}, {"sequence": "CTGCTACCATGGACCGGTTTTCCCGGTAATCCGTATTTGTT (site CTGCTACCTAT)", "recombinant UMI read abundance (log10)": 0.011}, {"sequence": "AATTATGCATGGACCGGTTTTCCCGGTAATCCGTATTTGCA (site AATTATGCTTC)", "recombinant UMI read abundance (log10)": 0.00784}, {"sequence": "AGCCTTTCATGGACCGGTTTTCCCGGTAATCCGTATTTGAC (site AGCCTTTCTGC)", "recombinant UMI read abundance (log10)": 0}, {"sequence": "AAGGTGTCATGGACCGGTTTTCCCGGTAATCCGTATTTGAC (site AAGGTGTCTGT)", "recombinant UMI read abundance (log10)": 3.31}, {"sequence": "AGCCTAGCATGGACCGGTTTTCCCGGTAATCCGTATTTGTT (site AGCCTAGCTTA)", "recombinant UMI read abundance (log10)": 0.00455}, {"sequence": "CCCGGTACATGGACCGGTTTTCCCGGTAATCCGTATTTGCA (site CCCGGTGCTTG)", "recombinant UMI read abundance (log10)": 0}, {"sequence": "CAATCCTCATGGACCGGTTTTCCCGGTAATCCGTATTTGCC (site CATTCCTCTGG)", "recombinant UMI read abundance (log10)": 0.913}, {"sequence": "ATAGTTTCATGGACCGGTTTTCCCGGTAATCCGTATTTGCA (site ACAGTATCTTG)", "recombinant UMI read abundance (log10)": 1.49}, {"sequence": "CGGCACCCATGGACCGGTTTTCCCGGTAATCCGTATTTGTT (site CGGCACCCTAA)", "recombinant UMI read abundance (log10)": 0.393}, {"sequence": "ACTGTGTCATGGACCGGTTTTCCCGGTAATCCGTATTTGAC (site ATTGTGTCTGT)", "recombinant UMI read abundance (log10)": 0}, {"sequence": "TATTTGGCATGGACCGGTTTTCCCGGTAATCCGTATTTGAG (site TATTTGGCTCT)", "recombinant UMI read abundance (log10)": 0.00868}, {"sequence": "TCAGTATCATGGACCGGTTTTCCCGGTAATCCGTATTTGCG (site TCAGTATCTCG)", "recombinant UMI read abundance (log10)": 1.85}, {"sequence": "GTGCATGCATGGACCGGTTTTCCCGGTAATCCGTATTTGTT (site GTGCATGCTAC)", "recombinant UMI read abundance (log10)": 0.0189}, {"sequence": "GACAAACCATGGACCGGTTTTCCCGGTAATCCGTATTTGGC (site GACAAACCTGC)", "recombinant UMI read abundance (log10)": 0}, {"sequence": "AGTAAGGCATGGACCGGTTTTCCCGGTAATCCGTATTTGAT (site AGTAAGGCTAT)", "recombinant UMI read abundance (log10)": 2.27}, {"sequence": "ATCTACACATGGACCGGTTTTCCCGGTAATCCGTATTTGAC (site ATCTATACTGT)", "recombinant UMI read abundance (log10)": 0.824}, {"sequence": "TCCACAGCATGGACCGGTTTTCCCGGTAATCCGTATTTGCG (site TCCACGGCTCG)", "recombinant UMI read abundance (log10)": 0.0203}, {"sequence": "ACCTAGACATGGACCGGTTTTCCCGGTAATCCGTATTTGGG (site ACCGAGACTCC)", "recombinant UMI read abundance (log10)": 0}, {"sequence": "GACTCCCCATGGACCGGTTTTCCCGGTAATCCGTATTTGCA (site GACTCCCCTTG)", "recombinant UMI read abundance (log10)": 1.3}, {"sequence": "GCAGGCACATGGACCGGTTTTCCCGGTAATCCGTATTTGCA (site GCAGGCACTTG)", "recombinant UMI read abundance (log10)": 2.39}, {"sequence": "ACAGTATCATGGACCGGTTTTCCCGGTAATCCGTATTTGCA (site CCATTATCTTG)", "recombinant UMI read abundance (log10)": 2.31}, {"sequence": "TATTAGGCATGGACCGGTTTTCCCGGTAATCCGTATTTGTG (site TATTGGGCTCA)", "recombinant UMI read abundance (log10)": 0}, {"sequence": "CGGGATCCATGGACCGGTTTTCCCGGTAATCCGTATTTGTA (site CGGGATCCTTA)", "recombinant UMI read abundance (log10)": 1.69}, {"sequence": "ACCTAGACATGGACCGGTTTTCCCGGTAATCCGTATTTGGG (site TCCTAGACTCC)", "recombinant UMI read abundance (log10)": 0.0161}, {"sequence": "ATCTATACATGGACCGGTTTTCCCGGTAATCCGTATTTGAG (site ATCTATACTAT)", "recombinant UMI read abundance (log10)": 0.478}, {"sequence": "AAATGGCCATGGACCGGTTTTCCCGGTAATCCGTATTTGCA (site GAATGGCCTTG)", "recombinant UMI read abundance (log10)": 0}, {"sequence": "CTACCTACATGGACCGGTTTTCCCGGTAATCCGTATTTGAG (site CTGCCTACTCT)", "recombinant UMI read abundance (log10)": 0.00249}, {"sequence": "ATGAAGGCATGGACCGGTTTTCCCGGTAATCCGTATTTGCA (site AGGAAGACTTG)", "recombinant UMI read abundance (log10)": 0.763}, {"sequence": "CCCAGTCCATGGACCGGTTTTCCCGGTAATCCGTATTTGCA (site CCCGGTCCTTG)", "recombinant UMI read abundance (log10)": 0.00873}, {"sequence": "GTATGCACATGGACCGGTTTTCCCGGTAATCCGTATTTGGA (site GTATGCACTTA)", "recombinant UMI read abundance (log10)": 0.901}, {"sequence": "AATGTAACATGGACCGGTTTTCCCGGTAATCCGTATTTGCT (site ACTGTAACTAG)", "recombinant UMI read abundance (log10)": 1.84}, {"sequence": "TAGCGAGCATGGACCGGTTTTCCCGGTAATCCGTATTTGAA (site TAGCTAGCTTT)", "recombinant UMI read abundance (log10)": 0.00707}, {"sequence": "CAATTCACATGGACCGGTTTTCCCGGTAATCCGTATTTGCT (site CAATTCGCTAG)", "recombinant UMI read abundance (log10)": 0.587}]}]}
